Measured values taken from US10954210B2, “Crystal form of tipifarnib and preparation method and pharmaceutical composition thereof” (Hangzhou SoliPharma Co., Ltd., priority 2016, dated 2021).
“Also recorded” adds a separate entry of the source.

Legend:
Assay type in all cases: physicochemical
[1] = Slurry experiment in water (stirred 3 days at room temperature, XRD); conditions: stirred in water at room temperature for 3 days, by XRD
Method: (§1) Instruments and characterization methods: • X-ray powder diffraction (XRPD): performed on Bruder D8 Advance diffractometer. The samples were tested at room temperature under the following conditions: scan range 3-40° 2θ, step size 0.02° 2θ, and speed 0.2 s/step.

[2] = Phase and chemical stability experiments (10 days storage, XRD and purity); conditions: for Form (10 days test results): by XRD; for crystalline form after storage / purity change after storage: 10 days at 60° C. dry condition and 40° C./75% RH condition
Method: as §1

[3] = Dynamic vapor sorption / isothermal sorption
Method: Dynamic vapor sorption data and isothermal sorption data were collected on TA Instruments Q5000 TGA. Method: place 1 mg to 10 mg sample into a platinum pan; the weight change of the sample during the change in relative humidity from 0% to 80% to 0% was measured.

| Compound | Test results: crystalline form after stirring in water [1] | Test results: crystalline form after stirring in water ([1]; listed as Tipifarnib Form A) | Test results: crystalline form after stirring in water ([1]; listed as Tipifamib Form I) | Purity (%) (10 days test results) ([2]; 40° C./75% RH) | Form (10 days test results) ([2]; 40° C./75% RH) | Purity (%) (10 days test results) ([2]; 60° C./drying) | Form (10 days test results) ([2]; 60° C./drying) | weight change (isothermal sorption plot) ([3]; between 20 to 80% RH) | hygroscopicity ([3]; isothermal sorption plot, 20 to 80% RH) | Test results: crystalline form after stirring in water ([1]; listed as Tipifarnib Form II) | Test results: crystalline form after stirring in water ([1]; listed as Tipifarnib Form III) | Test results: crystalline form after stirring in water ([1]; listed as Tipifarnib Form IV) | crystalline form after storage [2] | purity change after storage [2] |
| --- | --- | --- | --- | --- | --- | --- | --- | --- | --- | --- | --- | --- | --- | --- |
| Cn1cncc1[C@@](N)(c1ccc(Cl)cc1)c1ccc2c(c1)c(-c1cccc(Cl)c1)cc(=O)n2C [Form A, (R)-6-(amino(4-chlorophenyl)(1-methyl-1H-imidazol-5-yl)methyl)-4-(3-chlorophenyl)-1-methyl-2(1H)-quinolinone, reference compound] | transformed to tipifanib Form I | Tipifarnib Form I |  |  |  |  |  |  |  |  |  |  |  |  |
| Cn1cncc1[C@@](N)(c1ccc(Cl)cc1)c1ccc2c(c1)c(-c1cccc(Cl)c1)cc(=O)n2C [Form I, (R)-6-(amino(4-chlorophenyl)(1-methyl-1H-imidazol-5-yl)methyl)-4-(3-chlorophenyl)-1-methyl-2(1H)-quinolinone] | remain unchanged |  | Tipifamib Form I | 99.61% | Tipifarnib Form I | 99.72% | Tipifarnib Form I | less than 0.2% | not hygroscopic |  |  |  | remained its original form; also recorded: remained their original forms | essentially did not change; also recorded: essentially did not decrease |
| Cn1cncc1[C@@](N)(c1ccc(Cl)cc1)c1ccc2c(c1)c(-c1cccc(Cl)c1)cc(=O)n2C [Form II, (R)-6-(amino(4-chlorophenyl)(1-methyl-1H-imidazol-5-yl)methyl)-4-(3-chlorophenyl)-1-methyl-2(1H)-quinolinone] | remained unchanged |  |  | 99.86% | Tipifarnib Form II | 99.84% | Tipifarnib Form II |  |  | Tipifarnib Form II |  |  | remained their original forms; also recorded: remained its original form | essentially did not decrease; also recorded: essentially did not change |

Further lines, with some results ahead:

| Test results: crystalline form after stirring in water [1] | Test results: crystalline form after stirring in water ([1]; listed as Tipifarnib Form A) | Test results: crystalline form after stirring in water ([1]; listed as Tipifamib Form I) | Purity (%) (10 days test results) ([2]; 40° C./75% RH) | Form (10 days test results) ([2]; 40° C./75% RH) | Purity (%) (10 days test results) ([2]; 60° C./drying) | Form (10 days test results) ([2]; 60° C./drying) | weight change (isothermal sorption plot) ([3]; between 20 to 80% RH) | hygroscopicity ([3]; isothermal sorption plot, 20 to 80% RH) | Test results: crystalline form after stirring in water ([1]; listed as Tipifarnib Form II) | Test results: crystalline form after stirring in water ([1]; listed as Tipifarnib Form III) | Test results: crystalline form after stirring in water ([1]; listed as Tipifarnib Form IV) | Compound | crystalline form after storage [2] | purity change after storage [2] |
| --- | --- | --- | --- | --- | --- | --- | --- | --- | --- | --- | --- | --- | --- | --- |
| remained unchanged |  |  | 99.80% | Tipifarnib Form III | 99.80% | Tipifarnib Form III |  |  |  | Tipifarnib Form III |  | Cn1cncc1[C@@](N)(c1ccc(Cl)cc1)c1ccc2c(c1)c(-c1cccc(Cl)c1)cc(=O)n2C [Form III, (R)-6-(amino(4-chlorophenyl)(1-methyl-1H-imidazol-5-yl)methyl)-4-(3-chlorophenyl)-1-methyl-2(1H)-quinolinone] | remained their original forms; also recorded: remained its original form | essentially did not decrease; also recorded: essentially did not change |
| remained unchanged |  |  | 99.73% | Tipifarnib Form IV | 99.85% | Tipifarnib Form IV |  |  |  |  | Tipifarnib Form IV | Cn1cncc1[C@@](N)(c1ccc(Cl)cc1)c1ccc2c(c1)c(-c1cccc(Cl)c1)cc(=O)n2C [Form IV, (R)-6-(amino(4-chlorophenyl)(1-methyl-1H-imidazol-5-yl)methyl)-4-(3-chlorophenyl)-1-methyl-2(1H)-quinolinone] | remained their original forms; also recorded: remained its original form | essentially did not decrease; also recorded: essentially did not change |
